Values joined by “and” are separate entries in the source; they are usually repeats but may differ in a detail not shown here. Equal values may be shown once. Read-outs that look alike come from different tables or passages of the source.
Legend:
Assay type in all cases: in vivo, mouse
[1] = Tissue concentrations 75 min after oral administration; conditions: for concentration at 75 min: 30 mg/kg, 30 mg/kg oral, individual mice
Experimental: C57BL/6 mice that had been denied access to food overnight received the indicated oral dose of DS20060511, and blood samples were collected from the tail vein at the indicated timepoints. Plasma samples for quantitation of DS20060511 were prepared by centrifugation. Another group of mice received oral administration DS20060511 (30 mg kg^−1) and euthanized 75 min later. The soleus and gastrocnemius muscles, heart, and inguinal WAT were removed and homogenized in water (5 vol.) for quantitation of the drug concentrations. Plasma samples and tissue homogenates were analyzed by LC-MS/MS (Nexera MP System, SHIMADZU, Kyoto, Japan; API4000 System, SCIEX, Framingham, MA). The tissue concentrations of the compound were calculated by assuming the volume of 1 g of tissue is 1 mL. Evaluation of the metabolic stability of the compound to mouse and human cytochrome P450 (CYP) was conducted as follows. The test compound (1 μM) was incubated with pooled liver microsomes (0.1 mg mL^−1) in sodium phosphate buffer (100 mM, pH 7.4) at 37 °C with an NADPH generating system: β-nicotinamide adenine dinucleotide phosphate (β-NADP) 1 mM, D-glucose 6-phosphate (G-6-P) 10 mM, glucose 6-phosphate dehydrogenase (G-6-PDH) 1 U mL^−1, and magnesium chloride 3.3 mM. After 30 min incubation, the reaction was terminated by addition of acetonitrile and samples were analyzed by LC-MS/MS. The results were expressed as the amount of compound remaining (expressed as a percentage), based on the ratio of the relative area to that in the control (without reaction).

[2] = system: db/db mice; assay: Repeated (28-day) DS20060511 treatment of db/db mice; parameters: Blood glucose after refeeding AUC: unit not given here; conditions: for Blood glucose after refeeding / Blood glucose after refeeding AUC: db/db
Experimental: db/db mice were acclimatized to a 6 h restricted feeding pattern from 10 am to 4 pm prior to the start of the experiment. For 28 days from 6 weeks of age, the mice received oral administration of 10 mg kg^−^1 of DS20060511 or vehicle once a day, 15 min prior to their feeding. On day 1 and day 28, the blood glucose levels were measured between 10 am to 4 pm. Blood glucose levels were measured using Glutest Every in blood samples collected from the tail vein. Daily food intake was monitored throughout the study, and the body weight, blood glucose, and plasma insulin were measured on day 1 and day 28. The hemoglobin A1c (HbA1c) level was also measured with a HLC-723G8 Automated Glycohemoglobin Analyzer on day 1 and day 28 (Tosoh, Tokyo, Japan). The triceps surae muscle (skeletal muscle), heart, epididymal WAT, and liver were excised immediately after euthanasia, and the tissue weights were measured on day 29. The glycogen contents of the muscle, heart, and liver were measured as described previously,[52] with some modifications. In brief, each tissue sample (50–100 mg) was weighed and boiled in 0.75 mL of 8 M KOH. After cooling, 0.25 mL of 1 M Na2SO4, followed by 2 mL of 99.5% ethanol, was added to precipitate the glycogen. The samples were centrifuged and the glycogen precipitates were dissolved in distilled water. Glycogen was degraded to glucose by treatment with amyloglucosidase (Sigma–Aldrich) at 55 °C for 60 min, and the glucose concentration was determined with Glucose CII Test Wako (FUJIFILM Wako Pure Chemical).

[3] = system: C57BL/6 mice; assay: Indirect calorimetry under the oral glucose tolerance test; conditions: oral GTT; 30 mg/kg po; 1 h after glucose load
Source text: In the revised manuscript, we have added references
154–156. We think that the reference, PMID: 23349504, is not suitable for this context, because this […]
What is the faith of the glucose in response to DS20060511? Is it oxidized or stored as glycogen? Does it produce excessive oxidative stress? Please include such important measures.
Response: Thank you for your question. We agree that such information is important. In the revised manuscript, we have added data on the glycogen contents of the skeletal muscle, heart, and liver after 28 days of DS20060511 treatment in db/db mice, in Supplementary Fig. 5c and lines 241–243, as […]
liver, or in the glycogen contents of the muscle, heart, and liver (Supplementary Fig. 5b, c).” The […]
oxidized, and not stored as glycogen. We, however, regret not assessing the level of oxidative stress in the skeletal muscles of the db/db mice. To determine whether DS20060511 treatment might produce excessive oxidative stress, the data of indirect calorimetry under GTT in B6 mice may be […]
produce excessive oxidative stress, at least at the whole-body level in the normal state.
Indirect calorimetry under the oral glucose tolerance test. C57BL/6 mice (n = 6) that had been denied access to food overnight received oral administration of 30 […]
glucose load (1.5 g kg-1). Indirect calorimetry was performed for 1 h after the glucose load. […]

[4] = db/db mice, 10 mg/kg, Day 1, individual animals, 10 mg/kg
[5] = db/db mice, 10 mg/kg, Day 28, individual animals, 10 mg/kg

COc1ccc2c(C)c(C(=O)O)ccc2c1C1C2=C(CC(C)(C)CC2=O)OC2=C1C(=O)CC(C)(C)C2 [DS20060511]
concentration at 75 min ([1]; C57BL/6, mouse, gastrocnemius muscle, po, Gastro. muscle, read-out: Conc. (µM) Gastro.): 8 µM | concentration at 75 min ([1]; C57BL/6, mouse, heart, po, heart, read-out: Conc. (µM) Heart): 21.3 µM | concentration at 75 min ([1]; C57BL/6, mouse, inguinal WAT, po, WAT, read-out: Conc. (µM) WAT): 6.8 µM | concentration at 75 min ([1]; C57BL/6, mouse, soleus muscle, po, soleus, read-out: Conc. (µM) Soleus): 10.8 µM | concentration at 75 min ([1]; Gastro. muscle, read-out: Conc. (µM) Gastro.): 9.3 µM and 7.1 µM and 8.8 µM | concentration at 75 min ([1]; WAT, read-out: Conc. (µM) WAT): 5.9 µM and 5.0 µM and 4.1 µM | concentration at 75 min ([1]; heart, read-out: Conc. (µM) Heart): 21.0 µM and 19.6 µM and 18.0 µM | concentrations in tissues (in words) ([1]; skeletal muscle, WAT, heart, 75 min after oral 30 mg kg−1): almost comparable concentrations among the skeletal muscle, WAT, and heart | concentration at 75 min ([1]; soleus, read-out: Conc. (µM) Soleus): 13.8 µM and 9.8 µM and 11.1 µM | visible sign of toxicity ([2]; 28-day repeated-dose study in db/db mice): did not find any visible sign of toxicity | Body weight (g) Day 1 [2, 4]: 25.2 g and 26.3 g and 27.7 g and 27.0 g and 28.4 g | Glucose (mg/dl) Day 1 [2, 4]: 122 mg/dL and 152 mg/dL and 138 mg/dL and 136 mg/dL and 89 mg/dL and 180 mg/dL | Insulin (ng/ml) Day 1 [2, 4]: 2.27 ng/mL and 4.08 ng/mL and 4.23 ng/mL and 4.25 ng/mL and 2.30 ng/mL and 3.38 ng/mL | Body weight (g) Day 28 [2, 5]: 37.0 g and 39.8 g and 40.4 g and 39.6 g and 39.4 g and 41.1 g | Glucose (mg/dl) Day 28 [2, 5]: 167 mg/dL and 157 mg/dL and 194 mg/dL and 145 mg/dL and 132 mg/dL and 155 mg/dL | Insulin (ng/ml) Day 28 [2, 5]: 7.52 ng/mL and 5.68 ng/mL and 8.16 ng/mL and 6.98 ng/mL and 8.68 ng/mL and 6.72 ng/mL | Tissue weight (g) WAT ([2]; db/db mice, 10 mg/kg, WAT, individual animals): 1.93 g and 2.01 g and 2.15 g and 1.84 g and 1.69 g and 2.14 g | Tissue weight (g) Heart ([2]; db/db mice, 10 mg/kg, heart, individual animals): 0.11 g and 0.10 g | Tissue weight (g) Liver ([2]; db/db mice, 10 mg/kg, liver, individual animals): 1.31 g and 1.43 g and 1.57 g and 1.42 g and 1.77 g | Tissue weight (g) Muscle ([2]; db/db mice, 10 mg/kg, muscle, individual animals): 0.17 g and 0.18 g | HbA1c (%) Afrer ([2]; db/db mice, DS20060511 10 mg/kg, after repeated treatment, individual animals, 10 mg/kg): 3.6% and 3.4% and 3.3% and 3.8% | HbA1c (%) Delta ([2]; db/db mice, DS20060511 10 mg/kg, change from pre to after, individual animals, 10 mg/kg): 0.38% and 0.35% and 0.34% and 0.46% and 0.33% and 0.7% | HbA1c (%) Pre ([2]; db/db mice, DS20060511 10 mg/kg, pre treatment (baseline), individual animals, 10 mg/kg): 3.2% and 3.3% and 3.1% and 2.9% | blood glucose levels (in words) ([2]; db/db mice, 10 mg kg−1 day−1, day 1 to day 28): decreased significantly | tissue weights of muscle, heart, WAT, liver; glycogen contents of muscle, heart, liver ([2]; db/db mice, 28-day treatment): no significant changes | hemoglobin A1c (HbA1c) value (in words) ([2]; db/db mice, chronic treatment, 4 weeks): significantly reduced | body weight, food intake, fasting blood glucose level, fasting plasma insulin levels ([2]; db/db mice, vs vehicle): no statistically significant differences | Blood glucose after refeeding ([2]; 10 mg/kg, Day 1, 0 hr, individual animals, 10 mg/kg): 91 mg/dL and 54 mg/dL and 72 mg/dL and 70 mg/dL and 85 mg/dL and 96 mg/dL | Blood glucose after refeeding ([2]; 10 mg/kg, Day 1, 0.5 hr, individual animals, 10 mg/kg): 138 mg/dL and 112 mg/dL and 86 mg/dL and 108 mg/dL and 117 mg/dL and 130 mg/dL | Blood glucose after refeeding ([2]; 10 mg/kg, Day 1, 1 hr, individual animals, 10 mg/kg): 162 mg/dL and 145 mg/dL and 120 mg/dL and 136 mg/dL and 126 mg/dL and 147 mg/dL | Blood glucose after refeeding ([2]; 10 mg/kg, Day 1, 2 hr, individual animals, 10 mg/kg): 220 mg/dL and 154 mg/dL and 182 mg/dL and 126 mg/dL and 135 mg/dL and 171 mg/dL | Blood glucose after refeeding ([2]; 10 mg/kg, Day 1, 4 hr, individual animals, 10 mg/kg): 189 mg/dL and 177 mg/dL and 142 mg/dL and 139 mg/dL and 179 mg/dL and 259 mg/dL | Blood glucose after refeeding ([2]; 10 mg/kg, Day 1, 6 hr, individual animals, 10 mg/kg): 261 mg/dL and 247 mg/dL and 262 mg/dL and 136 mg/dL and 157 mg/dL and 294 mg/dL | Blood glucose after refeeding ([2]; 10 mg/kg, Day 1, -0.25 hr, individual animals, 10 mg/kg): 124 mg/dL and 77 mg/dL and 78 mg/dL and 106 mg/dL and 118 mg/dL | Blood glucose after refeeding AUC ([2]; 10 mg/kg, Day 1, individual animals, 10 mg/kg): 1236.0 and 1043.0 and 1019.0 and 813.5 and 939.5 and 1321.3 | Blood glucose after refeeding ([2]; 10 mg/kg, Day 28, 0 hr, individual animals, 10 mg/kg): 140 mg/dL and 130 mg/dL and 193 mg/dL and 159 mg/dL and 136 mg/dL | Blood glucose after refeeding ([2]; 10 mg/kg, Day 28, 0.5 hr, individual animals, 10 mg/kg): 171 mg/dL and 147 mg/dL and 157 mg/dL and 168 mg/dL and 130 mg/dL and 217 mg/dL | Blood glucose after refeeding ([2]; 10 mg/kg, Day 28, 1 hr, individual animals, 10 mg/kg): 187 mg/dL and 108 mg/dL and 139 mg/dL and 164 mg/dL and 142 mg/dL and 240 mg/dL | Blood glucose after refeeding ([2]; 10 mg/kg, Day 28, 2 hr, individual animals, 10 mg/kg): 230 mg/dL and 128 mg/dL and 167 mg/dL and 182 mg/dL and 163 mg/dL and 274 mg/dL | Blood glucose after refeeding ([2]; 10 mg/kg, Day 28, 4 hr, individual animals, 10 mg/kg): 256 mg/dL and 306 mg/dL and 290 mg/dL and 274 mg/dL and 297 mg/dL and 345 mg/dL | Blood glucose after refeeding ([2]; 10 mg/kg, Day 28, 6 hr, individual animals, 10 mg/kg): 334 mg/dL and 357 mg/dL and 336 mg/dL and 316 mg/dL and 282 mg/dL and 356 mg/dL | Blood glucose after refeeding ([2]; 10 mg/kg, Day 28, -0.25 hr, individual animals, 10 mg/kg): 157 mg/dL and 175 mg/dL and 184 mg/dL and 155 mg/dL and 151 mg/dL and 135 mg/dL | Blood glucose after refeeding AUC ([2]; 10 mg/kg, Day 28, individual animals, 10 mg/kg): 1526.0 and 1424.3 and 1491.8 and 1462.3 and 1397.8 and 1875.8 | VO2 [3]: no change in the VO2

Reference: PMC8379256, “A xanthene derivative, DS20060511, attenuates glucose intolerance by inducing skeletal muscle-specific GLUT4 translocation in mice” (Communications Biology, 2021)
